We go through three molecules from ChEMBL document CHEMBL1151480, “Endiandric Acid Analogues from the Roots of Beilschmiedia erythrophloia” (2009).

SMILES strings stand for the structures. ≈ marks a conversion by molar mass, not a printed value. Calls of active or inactive are those of the source. The rule behind the calls is not given here.

The test system of experiment [1] is Mycobacterium tuberculosis. The experiment in a line: Antitubercular activity against Mycobacterium tuberculosis H37Rv after 2 weeks by proportion method. It is filed as functional. Conditions: 336 h.
The next experiment concerns P388. The experiment in a line: Growth inhibition of mouse P388 cells. It is filed as functional, cell-based.

For the molecule `COC(=O)[C@@H]1C=C[C@@H]2C[C@H]3[C@H](CCCCCCCc4ccccc4)[C@H]4C=C[C@@H]1[C@@H]2[C@H]43` [ERYTHROPHLOIN C], in experiment [1], the MIC was 50 µg/mL (≈ 124 µM). The same measure, in the same setting: next, `CC[C@@H](CO)NCCN[C@@H](CC)CO` [ETHAMBUTOL]: 6.25 µg/mL (≈ 30.6 µM). Turning to `C=C1CC[C@H]2O[C@]2(C)[C@H](O)C[C@@H]2[C@@H]1CC2(C)C` [SUBEROSOL B], the “growth inhibition (GI)” value in the experiment on P388 is “Active”. For the same molecule, the lowest concentration to inhibit growth in experiment [1] (MIC) was 28.9 µg/mL (≈ 122 µM).

A word on the MIC: it is the lowest concentration found to suppress growth. A high value points to weaker potency.
